The results in this text go back to ChEMBL document CHEMBL4251560, “The Novel 4-Phenyl-2-Phenoxyacetamide Thiazoles modulates the tumor hypoxia leading to the crackdown of neoangiogenesis and evoking the cell death” (Eur J Med Chem, 2018).

What all share (type): functional, cell-based
The subject of test [1] is MCF7. Put plainly: Cytotoxicity against human MCF7 cells assessed as reduction in cell viability after 48 hrs by MTT assay. To be noted: MCF7, 48 h. Background: Tetrazolium dyes change colour on reduction, which living cells bring about.
The test system of test [2] is Ehrlich. Put plainly: Cytotoxicity against mouse EAC cells assessed as reduction in cell viability after 48 hrs by trypan blue exclusion assay.
For test [3], the system named is MCF7. Put plainly: Cytotoxicity against human MCF7 cells assessed as reduction in cell viability after 48 hrs by trypan blue exclusion assay. The following applies: MCF7, 48 h.
Test [4] in a line: Cytotoxicity against mouse DLA cells assessed as reduction in cell viability after 48 hrs by MTT assay.
For test [5], the system named is A549. Briefly: Cytotoxicity against human A549 cells assessed as reduction in cell viability after 48 hrs by trypan blue exclusion assay. To be noted: A549, 48 h.
For test [6], the system named is MDA-MB-468. Put plainly: Cytotoxicity against human MDA-MB-468 cells assessed as reduction in cell viability after 48 hrs by trypan blue exclusion assay. To be noted: MDA-MB-468, 48 h.
Test [7] relates to Ehrlich. Put plainly: Cytotoxicity against mouse EAC cells assessed as reduction in cell viability after 48 hrs by MTT assay.
Test [8] deals with MDA-MB-468. Put plainly: Cytotoxicity against human MDA-MB-468 cells assessed as reduction in cell viability after 48 hrs by MTT assay. To be noted: MDA-MB-468, 48 h.
The subject of test [9] is A549. Put plainly: Cytotoxicity against human A549 cells assessed as reduction in cell viability after 48 hrs by MTT assay. To be noted: A549, 48 h.
A short description of test [10]: Cytotoxicity against mouse DLA cells assessed as reduction in cell viability after 48 hrs by trypan blue exclusion assay.

The structures appear in SMILES notation. pIC50: −log10 of the molar value.

One may read the pIC50 as the negative decadic logarithm of the IC50, by convention in mol/L. In the case of `Cc1ccc(OCC(=O)Nc2nc(-c3ccc(Br)cc3)cs2)cc1`, the pIC50 is 4.28 in [1]; 4.26 in [2]; 4.28 in test [3]; 4.37 in test [4]; 4.23 in [5]; 4.35 in [6]. In addition, the negative logarithm of the IC50 (pIC50) in test [7] is 4.25; in test [8], 4.35; in test [9] it was 4.23; in test [10], 4.36.

`Cc1ccc(-c2csc(NC(=O)COc3ccc(Cl)cc3)n2)cc1`: the pIC50 in test [1] was 4.36; in test [2], 4.38; in [3] it was 4.36; in test [4], 4.28; in [5] it was 4.35; in [6], 4.35. For the same compound, the pIC50 in [7] is 4.37; in test [8] it was 4.35; in [9], 4.36; in test [10], 4.28.

Take `O=C(COc1ccc(Cl)cc1)Nc1nc(-c2ccc(Cl)cc2)cs1`: the pIC50 is 4.35 in [1]; 4.28 in test [2]; 4.36 in [3]; 4.27 in test [4]; 4.31 in test [5]; 4.25 in test [6]. The pIC50 in test [7] is 4.28; in test [8] it was 4.26; in test [9], 4.30; in test [10], 4.28.

Consider `O=C(COc1ccc(F)cc1)Nc1nc(-c2ccc(Cl)cc2)cs1`, for which the pIC50 in test [1] is 4.45; in [2] it was 4.44; in test [3], 4.45; in test [4], 4.44; in test [5] it was 4.44; in test [6] it was 4.37. Further, the pIC50 was 4.45 in test [7], 4.38 in [8], 4.44 in test [9] and 4.45 in test [10].

As to `Cc1ccc(-c2csc(NC(=O)COc3ccc(Cl)c(C)c3)n2)cc1`, the pIC50 in test [1] was 4.39; in test [2], 4.23; in test [3], 4.38; in [4], 4.22; in test [5], 4.35; in [6] it was 4.26. Besides, the pIC50 in [7] is 4.23; in test [8], 4.27; in test [9], 4.35; in test [10] it was 4.23.

Turning to `Cc1cc(Cl)ccc1OCC(=O)Nc1nc(-c2ccc(Cl)cc2)cs1`, the pIC50 in [1] is 4.39; in test [2], 4.28; in [3], 4.40; in test [4], 4.40; in test [5] it was 4.37; in test [6], 4.28. The pIC50 in [7] is 4.28; in test [8], 4.28; in [9], 4.36; in [10], 4.39.

On to `O=C(COc1ccc(Cl)cc1)Nc1nc(-c2ccc(Br)cc2)cs1`, for which the negative-log IC50 (pIC50) in test [1] was 4.39; in test [2], 4.39; in test [3] it was 4.38; in test [4], 4.22; in test [5], 4.33; in test [6], 4.29. For the same compound, the negative-log IC50 (pIC50) is 4.40 in [7], 4.28 in test [8], 4.34 in test [9] and 4.25 in test [10].

With `CC(C)c1ccccc1OCC(=O)Nc1nc(-c2ccc(Br)cc2)cs1`, the pIC50 in [1] is 4.37; in test [2], 4.30; in test [3], 4.36; in test [4], 4.34; in test [5] it was 4.31; in [6], 4.30. For the same compound, the negative logarithm of the IC50 (pIC50) is 4.29 in test [7], 4.29 in [8], 4.32 in [9] and 4.35 in [10].

On to `Cc1ccc(-c2csc(NC(=O)COc3ccc(Br)cc3)n2)cc1`, for which the pIC50 in test [1] was 4.41; in test [2], 4.31; in test [3], 4.41; in test [4] it was 4.28; in [5] it was 4.43; in test [6], 4.40. Further, the pIC50 in test [7] was 4.32; in [8] it was 4.39; in test [9], 4.43; in [10], 4.29.

On to `O=C(COc1ccc(F)cc1F)Nc1nc(-c2ccc(Cl)cc2)cs1`, for which the negative-log IC50 (pIC50) in [1] is 4.59; in test [2] it was 4.58; in [3], 4.60; in test [4], 4.58; in test [5], 4.58; in test [6], 4.49. In addition, the pIC50 in test [7] is 4.58; in test [8], 4.48; in [9], 4.58; in test [10], 4.58.

Take `O=C(COc1ccc(Br)cc1)Nc1nc(-c2ccc(Cl)cc2)cs1`: the pIC50 in [1] is 4.28; in test [2], 4.29; in test [3] it was 4.28; in [4], 4.39; in test [5] it was 4.26; in test [6], 4.29. Besides, the pIC50 was 4.28 in test [7], 4.35 in test [8], 4.26 in [9] and 4.40 in test [10].

As to `Cc1ccc(-c2csc(NC(=O)COc3ccc(F)cc3)n2)cc1`, the negative-log IC50 (pIC50) in [1] is 4.74; in test [2], 4.74; in test [3], 4.74; in test [4] it was 4.72; in [5], 4.72; in test [6], 4.61. In addition, the pIC50 is 4.74 in test [7], 4.60 in [8], 4.71 in test [9] and 4.74 in test [10].

For the compound `Cc1ccc(-c2csc(NC(=O)COc3ccccc3C(C)C)n2)cc1`, the pIC50 in [1] was 4.31; in test [2], 4.37; in [3] it was 4.31; in test [4], 4.28; in [5], 4.35; in [6], 4.25. Moreover, the pIC50 in [7] was 4.37; in test [8], 4.26; in [9] it was 4.35; in [10], 4.28.

Regarding `O=C(COc1ccccc1)Nc1nc(-c2ccc(Br)cc2)cs1`, the pIC50 in test [1] is 4.27; in [2] it was 4.43; in test [3], 4.27; in test [4], 4.22; in test [5], 4.28; in test [6], 4.43. In addition, the pIC50 in test [7] was 4.43; in test [8] it was 4.43; in [9], 4.28; in [10], 4.25.

Regarding `CC(C)c1ccc(OCC(=O)Nc2nc(-c3ccc(Cl)cc3)cs2)c(C(C)C)c1`, the pIC50 was 4.40 in test [1]; 4.20 in test [2]; 4.39 in [3]; 4.27 in test [4]; 4.31 in test [5]; 4.39 in test [6]. Also, the negative logarithm of the IC50 (pIC50) in [7] is 4.21; in test [8], 4.38; in [9], 4.31; in test [10], 4.27.

With `O=c1[nH]cc(F)c(=O)[nH]1` [FLUOROURACIL], the negative-log IC50 (pIC50) was 4.99 in [1]; 5.02 in test [2]; 4.97 in test [3]; 4.97 in [4]; 4.35 in test [6]; 5.04 in [7]. Moreover, the figures for the negative-log IC50 (pIC50) in test [8] and in test [10] were 4.35 and 4.97, respectively.
